The term EC50 denotes the concentration that produces a half-maximal response.

One assay deals with rat GPR40 (Rattus norvegicus (Rat), UniProt Q8K3T4). Briefly: GPR40 calcium flux assay, HEK293 cells stably expressing rat GPR40. The note with it: transfected HEK293 cells stably expressing rat GPR40; individual determinations listed; read-out: rGPR40 Ca2+ Assay EC50. The format is cell-based. The protocol:
(§1) Compounds were tested in a calcium flux assay using transfected HEK293 cells stably expressing either human GPR40 or rat GPR40. Human GPR40 expressing cells were cultured in DMEM-High Glucose media supplemented with 10% fetal bovine serum, 1×L-Glutamine, 1× Penicillin/Streptomycin and 500 μg/mL G418. Rat GPR40 expressing cells were cultured in DMEM-High Glucose media supplemented with 10% fetal bovine serum and 1 μg/mL puromycin. Cells were plated into poly-D-lysine coated 384-well plates and cultured overnight in a 37° C. humidified tissue culture incubator under 5% CO2/90% O2 atmosphere. On the day of the experiment, the culture media was replaced with assay buffer (HBSS, 20 mM HEPES, 0.1% BSA) and the cells incubated at 37° C. for 1 h. Calcium-sensitive fluorescent dye (Fluo 8 No-Wash Calcium Dye, ABD Bioquest) was then added and the cells incubated for another 30 min at 37° C. followed by 15 min at room temperature while protected from the light. The cell plate and a plate of diluted compounds of Formula (I) were loaded into a fluorescent plate reader that added compounds onto the cells while measuring the fluorescence intensity of each well. The plate reader recorded fluorescence intensity at 1 second intervals for 8 min and provided the data for analysis in an Excel format. EC50 values were calculated using Prism (GraphPad) software.

Another assay deals with human GPR40 (Homo sapiens (Human), UniProt O14842). Briefly: GPR40 calcium flux assay, HEK293 cells stably expressing human GPR40. The assay is classed as cell-based. As to conditions: transfected HEK293 cells stably expressing human GPR40; individual determinations listed; read-out: hGPR40 Ca2+ Assay EC50. On the procedure:
as §1
In general terms: Calcium assays in cells follow changes in intracellular calcium, usually with a dye or a luminescent sensor.

A further assay relates to Male SD rats. Briefly: Oral glucose tolerance test. The format is in vivo, rat. As to conditions: dosed 30 min prior to oGTT (glucose 2 g/kg po), blood glucose AUC t=0 to t=120 minutes vs vehicle. The protocol:
Male SD rats (200-250 g) were housed 2 per cage in a temperature-controlled room with a 12-hour light/dark cycle. They were allowed ad libitum access to water and fed with normal rodent chow. The night before the oral glucose tolerance test (oGTT), the rats were transferred to clean cages and fasted overnight. On the morning of the oGTT, the rats were weighed and randomized into groups based on fasted blood glucose and body weight. Rats were dosed with vehicle (0.5% methocel) or compounds thirty min prior to the oGTT (glucose, 2 g/kg, po). Blood was collected from the tail vein at 0, 10, 30, 60 and 120 minutes after glucose challenge to measure blood glucose; plasma was used to determine insulin levels.

Values joined by “and” are separate entries in the source; they are usually repeats but may differ in a detail not shown here. Identical values can stand only once.

human GPR40, sequence (O14842 whole entry): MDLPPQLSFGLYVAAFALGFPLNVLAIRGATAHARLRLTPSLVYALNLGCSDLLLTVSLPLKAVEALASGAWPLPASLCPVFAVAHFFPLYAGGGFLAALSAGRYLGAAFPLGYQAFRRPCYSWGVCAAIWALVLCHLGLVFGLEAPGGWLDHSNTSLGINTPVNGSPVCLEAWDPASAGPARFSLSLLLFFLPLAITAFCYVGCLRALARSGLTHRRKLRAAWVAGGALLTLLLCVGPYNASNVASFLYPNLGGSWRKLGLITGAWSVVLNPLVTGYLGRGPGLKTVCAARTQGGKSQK
rat GPR40, sequence (Q8K3T4 whole entry): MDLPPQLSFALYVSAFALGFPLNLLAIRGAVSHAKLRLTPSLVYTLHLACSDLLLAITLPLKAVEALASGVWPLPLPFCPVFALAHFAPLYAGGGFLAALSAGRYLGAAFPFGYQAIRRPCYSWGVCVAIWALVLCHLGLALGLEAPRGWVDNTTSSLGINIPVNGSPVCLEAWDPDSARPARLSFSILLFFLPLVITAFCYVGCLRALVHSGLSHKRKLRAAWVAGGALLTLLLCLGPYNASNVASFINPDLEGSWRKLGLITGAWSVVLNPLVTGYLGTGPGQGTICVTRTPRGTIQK

Regarding `COc1ccc(F)c(-c2ncc(COc3cccc([C@@H](CC(=O)O)C4CC4)c3)nc2OC2CCCC2)c1` [Cpd 13, (3S)-3-[3-[[6-(cyclopentoxy)-5-(2-fluoro-5-methoxy-phenyl)pyrazin-2-yl]methoxy]phenyl]-3-cyclopropyl-propanoic acid], the EC50 on rat GPR40 was 31 nM and 30 nM (2×) and 53 nM and 33 nM; at human GPR40 it was 19 nM (2×) and 20 nM and 10 nM and 8 nM. In addition, the “Percent Lowering of Glucose (AUC compound vs. AUC Vehicle)” value in the assay with Male SD rats is reported as 84%.
